Entries after “also recorded” stand apart in the source; their conditions may differ. Read-outs that look alike come from different tables or passages of the source.
How the values were obtained:
[1] = target: T1, pathological a-synuclein aggregates (Homo sapiens, UniProt P37840, G51D); assay: Autoradiography of Example-1 [^3H-1] in brain sections from PD, PDD and NDC donors; type: binding; conditions: Genetic PD (SNCA (G51D)) brain tissue, autoradiography
T1 construct: Frozen human brain sections from one familial PD case; from tissue; host or cells: frozen human brain sections: familial PD (SNCA G51D), PDD or idiopathic PD, MSA, NDC controls
Description: (§1) Frozen human brain sections from one familial PD case (a-synuclein [SNCA] gene G51 D missense mutation), labelled as SNCA (G51 D), one PDD case and two non-demented control (NDC) cases were first briefly fixed for 15 minutes at 4° C. with 4% paraformaldehyde (Sigma, 252549) and washed three times for five minutes with PBS (Dulbecco's phosphate buffered saline, Sigma) at RT. All slides were then equilibrated for 20 minutes in 50 mM Tris-HCl pH 7.4 buffer prior to use in the experiment. Each brain section was incubated with a fixed concentration (10 nM) of tritiated example compound 1 (Example-1 [^3H-1]) or a reference a-syn ligand ([3H]-a-syn-Ref), or increasing concentrations of Example-1 [^3H-1] in the range of 1.25 nM to 80 nM of tritiated compound in Tris-HCl buffer for two hours at RT (Total binding, ‘−’). To determine non-specific (NS) binding Example-1 [^3H-1] or [3H]-a-syn-Ref was mixed with 1 μM of non-radiolabelled compound (Example 1 or a-syn-Ref respectively, self-block, ‘+’). The slides were washed and placed under Phosphor imaging screens (GE healthcare, BAS-IP TR 2025) in imaging cassettes. Imaging screens were scanned using a laser imaging system (Typhoon, FLA 7000) and resulting images were analyzed using the ImageJ software package.

[2] = target: T2, pathological a-synuclein aggregates (Homo sapiens, UniProt P37840); assay: as above; type: binding
Description: as §1

a-syn pathology = target: T3, a-syn pathology (Homo sapiens, UniProt P37840); assay: Autoradiography of Example-1 [^3H-1] in brain sections from PD, PDD, MSA, LBV and NDC donors; type: binding; conditions: 10 nM
T3 construct: performed on frozen human brain sections from different a-synucleinopathy cases; from tissue; host or cells: frozen human brain sections (PD, PDD, MSA, DLB, LBV; NDC as controls)
Description: (§2) Frozen human brain sections from one PD case, two PDD cases, two MSA cases, one LBV case and three non-demented control (NDC) cases were first briefly fixed for 15 minutes at 4° C. with 4% paraformaldehyde (Sigma, 252549) and washed three times for five minutes with PBS (Dulbecco's phosphate buffered saline, Sigma) at RT. All slides were then equilibrated for 20 minutes in 50 mM Tris-HCl pH 7.4 buffer prior to use in the experiment. Each brain section was incubated with a fixed concentration (10 nM) of tritiated example compound 1 (Example-1 [^3H-1]) in Tris-HCl buffer for two hours at RT (Total binding, ‘Total’). […] The slides were washed and then exposed and scanned in a real-time autoradiography system (BeaQuant instrument, ai4R).

[3] = target: T4, PD brain-derived a-syn aggregates (Homo sapiens, UniProt P37840); assay: Saturation binding of Example-1 [^3H-1] by micro-radiobinding; conditions: head-to-head with [3H]-a-syn-Ref
T4 construct: from tissue; host or cells: human PD donor brain, sarkosyl-insoluble 100,000 x g pellet
Description: PD brain-derived a-syn aggregates were spotted onto microarray slides. The slides were incubated with Example-1 [^3H-1] or [3H]-a-syn-Ref at increasing concentrations in the range of 300 pM to 150 nM. After incubation, slides were washed and exposed to a phosphor storage screen (GE healthcare, BAS-IP TR 2025). Following exposure, phosphor storage screens were scanned with a laser imaging system (Typhoon FLA 7000) to readout the signal from the radiobinding experiments described above. Quantification of the signal was performed using the ImageJ software package.

Tau aggregates [4] = assay: Micro-autoradiography of Example-1 [^3H-1] on AD tissue; type: binding, human; conditions: AD brain tissue, compared to [3H]-Tau-Ref
Description: (§3) The protocol was adapted from Marquie et al., 2015. Sections were incubated with tritiated example compound 1 (Example-1 [3H-1]) or a reference Tau ligand ([3H]-Tau-Ref at 60 nM for one hour at room temperature (RT). Sections were then washed as follows: One time in ice-cold 50 mM Tris-HCl pH 7.4 buffer for one minute, two times in 70% ice-cold ethanol for one minute, one time in ice-cold 50 mM Tris-HCl pH 7.4 buffer for one minute and finally rinsed briefly in ice-cold distilled water. Sections were subsequently dried and then exposed to Ilford Nuclear Emulsion Type K5 (Agar Scientific, AGP9281) in a light-proof slide storage box. After five days, the sections were developed by immersing them successively in the following solutions: 1.) Ilford Phenisol Developer (1:5 dilution in H2O, Agar Scientific, AGP9106), 2.) Ilfostop solution (1:20 dilution in H2O, Agar Scientific, AGP9104), 3.) Ilford Hypam Fixer (1:5 dilution in H2O, Agar Scientific, AGP9183) and finally rinsed with H2O. […]

[5] = target: T5, TAR DNA-binding protein 43 (TDP-43) aggregates (Homo sapiens, UniProt Q13148); assay: Micro-autoradiography of Example-1 [^3H-1] on FTLD-TDP type C tissue; conditions: FTLD-TDP Type C brain tissue
T5 construct: present in Frontotemporal Lobar Degeneration TDP (FTLD-TDP) Type C brain tissue; from tissue; host or cells: FTLD-TDP type C brain tissue sections
Description: as §3

[6] = target: T6, a-syn aggregates (Lewy bodies and Lewy neurites) (Homo sapiens, UniProt P37840); assay: High resolution micro-autoradiography of Example-1 [^3H-1] in a-synucleinopathy tissues; type: binding; conditions: 60 nM; PD, PDD, MSA, DLB, LBV tissue
T6 construct: performed on frozen human brain sections from different a-synucleinopathy cases; from tissue; host or cells: frozen human brain sections (PD, PDD, MSA, DLB, LBV; NDC as controls)
Description: (§4) The protocol was adapted from Marquie et al., 2015. Sections were incubated with tritiated example compound 1 (Example-1 [3H-1]) or a reference Tau ligand ([3H]-Tau-Ref at 60 nM for one hour at room temperature (RT). Sections were then washed as follows: One time in ice-cold 50 mM Tris-HCl pH 7.4 buffer for one minute, two times in 70% ice-cold ethanol for one minute, one time in ice-cold 50 mM Tris-HCl pH 7.4 buffer for one minute and finally rinsed briefly in ice-cold distilled water. Sections were subsequently dried and then exposed to Ilford Nuclear Emulsion Type K5 (Agar Scientific, AGP9281) in a light-proof slide storage box. After five days, the sections were developed by immersing them successively in the following solutions: 1.) Ilford Phenisol Developer (1:5 dilution in H2O, Agar Scientific, AGP9106), 2.) Ilfostop solution (1:20 dilution in H2O, Agar Scientific, AGP9104), 3.) Ilford Hypam Fixer (1:5 dilution in H2O, Agar Scientific, AGP9183) and finally rinsed with H2O.
(§5) When indicated, immunostaining was also performed on the same section. For image acquisition, sections were mounted using ProLong Gold Antifade reagent (Invitrogen P36930) and imaged on a Panoramic150 Slide Scanner (3DHistech) with a 20× objective capturing separately brightfield and fluorescent images. […]

[7] = target: T2, pathological a-synuclein aggregates; assay: Autoradiography of Example-1 [^3H-1] in brain sections from PD, PDD and NDC donors; type: binding; design: Frozen human brain sections from one familial PD case; from tissue; host or cells: frozen human brain sections: familial PD (SNCA G51D), PDD or idiopathic PD, MSA, NDC controls; conditions: PDD brain tissue, autoradiography
Description: as §1

[8] = target: T4, PD brain-derived a-syn aggregates; assay: Saturation binding of Example-4 [^3H-4] by micro-radiobinding; conditions: PD homogenates
Description: PD brain-derived a-syn aggregates were spotted onto microarray slides. The slides were incubated with Example-4 [^3H-4] at increasing concentrations in the range of 1.56 nM to 80 nM. After incubation, slides were scanned by a real-time autoradiography system (BeaQuant instrument, ai4R). Quantification of the signal was performed by using the Beamage image analysis software (ai4R).

[9] = target: T6, a-syn aggregates (Lewy bodies and Lewy neurites); assay: High resolution micro-autoradiography of Example-4 [^3H-4] on PD tissue; type: binding; conditions: 20 nM
Description: as §4, with “4 (Example-4 [^3H-4])” for “1 (Example-1 [3H-1])”, “([^3H]-Tau-Ref” for “([3H]-Tau-Ref”, “20” for “60”, “RT.” for “room temperature (RT).”
as §5

Tau aggregates [10] = assay: Micro-autoradiography of Example-4 [^3H-4] on AD tissue; type: binding, human; conditions: AD brain tissue, compared to [^3H]-Tau-Ref
Description: as §4, with “4 (Example-4 [^3H-4])” for “1 (Example-1 [3H-1])”, “([^3H]-Tau-Ref” for “([3H]-Tau-Ref”, “20” for “60”, “RT.” for “room temperature (RT).”

pathological a-synuclein = assay: Autoradiography of Example-4 [^3H-4] in brain sections from PD, MSA and NDC donors; type: binding, human; conditions: 10 nM
Description: as §2, with “one familial PD case (a-synuclein [SNCA] gene G51 D missense mutation), labelled as SNCA, one idiopathic” for “one”, “case, one” for “case, two PDD cases, two”, “MSA” for “MSA cases, one LBV”, “and two” for “and three”, “compound 4 (Example-4 [^3H-4])” for “compound 1 (Example-1 [^3H-1])”

T5 sequence (Q13148 whole entry): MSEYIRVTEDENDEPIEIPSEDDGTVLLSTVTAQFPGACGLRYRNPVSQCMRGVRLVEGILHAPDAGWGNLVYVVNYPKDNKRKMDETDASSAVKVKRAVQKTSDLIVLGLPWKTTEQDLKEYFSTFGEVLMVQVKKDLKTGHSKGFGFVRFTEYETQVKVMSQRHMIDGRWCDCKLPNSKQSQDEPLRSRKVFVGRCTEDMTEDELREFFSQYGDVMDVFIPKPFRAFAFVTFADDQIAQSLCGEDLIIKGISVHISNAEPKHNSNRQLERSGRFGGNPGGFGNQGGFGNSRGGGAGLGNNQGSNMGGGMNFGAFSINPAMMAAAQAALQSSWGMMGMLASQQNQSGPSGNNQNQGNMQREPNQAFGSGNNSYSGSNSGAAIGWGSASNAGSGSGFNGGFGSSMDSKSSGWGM

[3H]c1cncc(N2Cc3nn(-c4cnc(N5CC[C@@H](F)C5)c([3H])c4)cc3C2=O)c1 [Example-1 [^3H-1]]
B max [1]: 3004
Kd [1]: 13 nM
Kd ([2]; PDD and genetic PD tissue, range of both, read-out: dissociation constant (Kd)): 11 to 13 nM
binding in non-diseased tissue (NDC) ([2]; autoradiography, 10 nM): very weak binding
specific binding in a-synucleinopathy brain sections ([2]; autoradiography, PDD and PD tissue, compared to [3H]-a-syn-Ref at 10 nM): improved total and excellent specific binding
autoradiographic signal in non-demented control cases (a-syn pathology): weak
target engagement in a-synucleinopathy tissues (a-syn pathology; MSA, LBV, PDD cases): target engagement
binding site occupancy [3]: high and improved binding site occupancy
target engagement on Tau aggregates (Tau aggregates [4]): No accumulation of silver grains on Tau tangles; also recorded: did not display specific target engagement
binding to TDP-43 aggregates [5]: No accumulation of silver grains on TDP-43 aggregates; also recorded: very weak to no binding
target engagement on Lewy bodies and Lewy neurites (silver grains) [6]: Accumulation of silver grains on Lewy bodies and Lewy neurites; also recorded: strong target engagement
B max [7]: 1104
Kd [7]: 11 nM

[3H]C([3H])([3H])n1cc(N2Cc3nn(-c4ccc(N5CC[C@@H](F)C5)nc4)cc3C2=O)cn1 [Example-4 [^3H-4]]
Kd [8]: 21 nM
target engagement on Lewy bodies and Lewy neurites (silver grains) [9]: Accumulation of silver grains on Lewy bodies and Lewy neurites; also recorded: strong target engagement
target engagement on Tau aggregates (Tau aggregates [10]): did not display specific target engagement
target engagement on Tau aggregates (Tau aggregates [10]; listed as Example-4 [^3H-1]): No accumulation of silver grains
signal in non-diseased control cases (pathological a-synuclein): very weak signal
specific binding in a-synucleinopathy tissues (pathological a-synuclein; MSA, familial PD, idiopathic PD): specific binding
